Measured values published in patent US5430062A, “Stilbene derivatives as anticancer agents” (priority 1993, dated 1995).
Where a name gives a salt, the structure may show the parent alone. Read-outs that look alike come from different tables or passages of the source. Blank lines part the entries; values can stand above or below the molecule they belong to.

What was measured:
MLM melanoma = assay: MTT cytotoxicity assay, MLM; conditions: for IC50: read-out: Cytotoxicity ED50, MLM
A-549 lung carcinoma = assay: MTT cytotoxicity assay, A-549; conditions: for IC50: Homo sapiens, A549, […], read-out: Cytotoxicity ED50, A-549
tubulin [1] = assay: Inhibition of tubulin polymerization (turbidimetry); format: biochemical, bovine
[2] = tested on: five cancer cell cultures; assay: MTT cytotoxicity assay, five cancer cell cultures taken together; conditions: for cytotoxicity (in words): five cancer cell lines
[3] = tested on: HT-29 colon adenocarcinoma; assay: MTT cytotoxicity assay, HT-29; conditions: for IC50: Homo sapiens, HT-29, […], read-out: Cytotoxicity ED50, HT-29
SKMEL-5 melanoma = assay: MTT cytotoxicity assay, SKMEL-5; conditions: for IC50: Homo sapiens, SK-MEL-5, […], read-out: Cytotoxicity ED50, SKMEL-5
MCF-7 breast carcinoma = assay: MTT cytotoxicity assay, MCF-7; conditions: for IC50: Homo sapiens, MCF7, […], read-out: Cytotoxicity ED50, MCF-7
[4] = tested on: DMS 273 small cell lung cancer; assay: Cytotoxicity, DMS 273; conditions: read-out: cytotoxicity GI50, DMS 273; 50% growth inhibition; average of two determinations; 8640 min
tubulin [5] = assay: Inhibition of [3H]colchicine binding to tubulin (DEAE-filter); parameters: species or system bovine; conditions: for Colchicine binding % inhibition: 1 μM tubulin, 5 μM [3H]colchicine, 5 μM inhibitor, 10 min, 37° C.
[6] = second series (Tables V-VII, IX), read-out: Inhibition of Tubulin Polymerization IC50 (±S.D.)
[7] = first series (Table VIII and text), 37° C., 20 min, read-out: Tubulin polymerization IC50 (±S.D.)

Structure (SMILES): COc1cc(CCc2ccc(SC)cc2)cc(OC)c1OC [17c, 1-(4-Methylthiophenyl)-2-(3,4,5-trimethoxyphenyl)ethane]
IC50 (MLM melanoma): 1.3 µM | IC50 (A-549 lung carcinoma): 150 nM | IC50 (tubulin [1]; [6]): > 40 µM | cytotoxicity (in words) [2]: decreased cytotoxicity | IC50 [3]: 400 nM | IC50 (SKMEL-5 melanoma): 240 nM | IC50 (MCF-7 breast carcinoma): 200 nM

Structure (SMILES): COc1cc([C@@H]2c3cc4c(cc3[C@H](O)[C@H]3COC(=O)[C@H]23)OCO4)cc(OC)c1OC [Podophyllotoxin, reference compound]
Colchicine binding % inhibition (tubulin [5]): 88% | IC50 (tubulin [1]; Table X footnote b, different glutamate preparation, read-out: tubulin polymerization IC50, standard agents): […] | IC50 (tubulin [1]; [7]): […]

Structure (SMILES): COc1ccc(CCc2cc(OC)c(OC)c(OC)c2)cc1O [compound 1c, reference compound]
IC50 (MLM melanoma): 0.01 µM | IC50 (A-549 lung carcinoma): 10 nM | inhibition of colchicine binding (in words) (tubulin [5]): inhibit the binding of radiolabeled colchicine to tubulin | Colchicine binding % inhibition (tubulin [5]): 79% | IC50 (tubulin [1]; [7]): 3.3 µM | IC50 [3]: 8.1 nM | IC50 (SKMEL-5 melanoma): 2.1 nM | IC50 (MCF-7 breast carcinoma): 330 nM

Structure (SMILES): COc1ccc(/C=C\c2cc(OC)c(OC)c(OC)c2)cc1 [compound 5a, (Z)-1-(4-Methoxyphenyl)-2-(3,4,5-trimethoxyphenyl)ethene]
times less cytotoxic than combretastatin A-4 (1a) (MLM melanoma; MLM): ~7 times | times less cytotoxic than combretastatin A-4 (1a) (A-549 lung carcinoma; A-549): about 20 times | inhibition of tubulin polymerization (in words) (tubulin [1]): strong inhibitors of tubulin polymerization | IC50 (tubulin [1]; [7]): 2.2 µM | IC50 (tubulin [1]; [6]): 2.5 µM | IC50 ([2]; […], read-out: cytotoxicity ED50): < 1000 nM | times more cytotoxic than combretastatin A-4 (1a) ([3]; HT-29): approximately 140 times | IC50 (SKMEL-5 melanoma): 0.26 nM | times less cytotoxic than combretastatin A-4 (1a) (SKMEL-5 melanoma; SKMEL-5): ~30 times | times more cytotoxic than combretastatin A-4 (1a) (MCF-7 breast carcinoma; MCF-7): about 10 times

Structure (SMILES): COc1ccccc1/C=C\c1cc(OC)c(OC)c(OC)c1 [compound 5c, (Z)-1-(2-Methoxyphenyl)-2-(3,4,5-trimethoxyphenyl)ethene]
IC50 (MLM melanoma): 8.6 µM | IC50 (A-549 lung carcinoma): 1100 nM | inhibition of tubulin polymerization (in words) (tubulin [1]): low activity | cytotoxicity (in words) [2]: decreased the activity drastically | IC50 [3]: 870 nM | IC50 (SKMEL-5 melanoma): 1200 nM | IC50 (MCF-7 breast carcinoma): 1300 nM

Second part, led by results:

IC50 (tubulin [1]; [6]): > 40 µM
Structure (SMILES): CCCOc1ccc(CCc2cc(OC)c(OC)c(OC)c2)cc1 [17b, 1-(4-n-Propoxyphenyl)-2-(3,4,5-trimethoxyphenyl)ethane]
IC50 (MLM melanoma): 15 µM | IC50 (A-549 lung carcinoma): 7200 nM | cytotoxicity (in words) [2]: decreased cytotoxicity | IC50 [3]: 6400 nM | IC50 (SKMEL-5 melanoma): 6700 nM | IC50 (MCF-7 breast carcinoma): 3900 nM

IC50 (tubulin [1]; [6]): > 40 µM
Structure (SMILES): COc1cc(CCc2ccc(OCCN(C)C)cc2)cc(OC)c1OC [17f]
IC50 (MLM melanoma): > 25 µM | IC50 (A-549 lung carcinoma): > 25000 nM | cytotoxicity (in words) [2]: decreased cytotoxicity | IC50 [3]: 9800 nM | IC50 (SKMEL-5 melanoma): 11400 nM | IC50 (MCF-7 breast carcinoma): 10300 nM

IC50 (tubulin [1]; [6]): > 40 µM
Structure (SMILES): CCN(CC)CCOc1ccc(CCc2cc(OC)c(OC)c(OC)c2)cc1 [17g]
IC50 (MLM melanoma): > 25 µM | IC50 (A-549 lung carcinoma): 6800 nM | cytotoxicity (in words) [2]: decreased cytotoxicity | IC50 [3]: 5200 nM | IC50 (SKMEL-5 melanoma): 8500 nM | IC50 (MCF-7 breast carcinoma): 4300 nM

IC50 (tubulin [1]; [6]): > 40 µM
Structure (SMILES): CCN(CC)CCOC(=O)/C(=C/c1ccc(OC)cc1)c1cc(OC)c(OC)c(OC)c1 [24e, (E)-(2-N,N-Diethylamino)ethyl-3-(4-methoxyphenyl)-2-(3,4,5-trimethoxyphenyl)-prop-2-enoate]
IC50 (MLM melanoma): > 25 µM | IC50 (A-549 lung carcinoma): 1800 nM | cytotoxicity (in words) [2]: did not show considerable cytotoxicity | IC50 [3]: 2800 nM | IC50 (SKMEL-5 melanoma): 2700 nM | IC50 (MCF-7 breast carcinoma): 2100 nM

IC50 (tubulin [1]; [6]): > 40 µM
Structure (SMILES): CCN(CC)CCOC(=O)/C(=C/c1cccc(OC)c1)c1cc(OC)c(OC)c(OC)c1 [24f, (E)-(2-N,N-Diethylamino)ethyl-3-(3-methoxyphenyl)-2-(3,4,5-trimethoxyphenyl)-prop-2-enoate]
IC50 (MLM melanoma): > 25 µM | IC50 (A-549 lung carcinoma): 7700 nM | cytotoxicity (in words) [2]: did not show considerable cytotoxicity | IC50 [3]: > 25000 nM | IC50 (SKMEL-5 melanoma): 6700 nM | IC50 (MCF-7 breast carcinoma): 10400 nM

IC50 (tubulin [1]; Table X, different glutamate preparation (1M monosodium glutamate and GTP), read-out: inhibn of tubulin polymn IC50 (±SD)): > 40 µM
Structure (SMILES): COc1cc(CNc2ccc(C(C)C)cc2)cc(OC)c1OC [110f, 4-Isopropyl-N-(3,4,5-trimethoxybenzyl)aniline Hydrochloride]
GI50 [4]: 12.9 µM
